Target: T1, Human recombinant norepinephrine transporter (Homo sapiens, UniProt P23975)
T1 construct: expressed in transfected cells; host or cells: dog kidney MDCK cells
Test: Norepinephrine uptake inhibition in MDCK cells
Type: cell-based
Conditions: 25 nM [3H]Norepinephrine, 10 minutes
Procedure: Human recombinant norepinephrine transporter stably expressed dog kidney MDCK cells are plated one day before the assay. […] Cells in the well were then rinsed twice, solubilized with 1% SDS lysis buffer and the lysate was counted to determine [^3H]Norepinephrine uptake. Specific signal was determined in the presence of 10 μM desipramine. Reduction of [^3H]Norepinephrine uptake by 50 percent or more (≧50%) relative to vehicle controls indicates significant inhibitory activity. Compounds were screened at 10, 1, 0.1, 0.01 and 0.001 μM.

T1 sequence (P23975 whole entry): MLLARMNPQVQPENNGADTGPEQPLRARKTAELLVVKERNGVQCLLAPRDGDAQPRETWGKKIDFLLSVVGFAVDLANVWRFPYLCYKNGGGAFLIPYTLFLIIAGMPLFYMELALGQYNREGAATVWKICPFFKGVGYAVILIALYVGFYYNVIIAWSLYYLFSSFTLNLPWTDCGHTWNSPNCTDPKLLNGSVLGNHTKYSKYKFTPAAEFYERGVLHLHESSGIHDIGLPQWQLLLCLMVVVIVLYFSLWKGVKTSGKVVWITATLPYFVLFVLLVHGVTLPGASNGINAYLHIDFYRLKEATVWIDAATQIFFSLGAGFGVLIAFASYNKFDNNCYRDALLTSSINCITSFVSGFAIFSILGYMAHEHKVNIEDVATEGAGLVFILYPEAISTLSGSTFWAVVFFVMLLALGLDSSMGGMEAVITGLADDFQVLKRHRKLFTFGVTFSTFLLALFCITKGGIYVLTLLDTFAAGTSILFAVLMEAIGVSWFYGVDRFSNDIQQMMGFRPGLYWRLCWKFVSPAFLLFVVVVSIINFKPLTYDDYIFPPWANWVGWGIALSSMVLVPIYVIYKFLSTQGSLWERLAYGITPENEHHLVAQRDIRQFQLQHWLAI

## CCCC[C@@H]1OC(=O)c2ccccc21 (stereo in doubt) [3-n-butylphthalide, 3-n-Butylphthalide]
  IC50: 23.7 µM

— patent US20100184852A1, “ORGANIC COMPOUNDS FOR TREATMENT OF DISORDERS CONNECTED TO IMPAIRED NEUROTRANSMISSION” (priority 2006, published 2010)
